Experiments:
human tau (hTau) = biological target: T1, human tau (hTau) (Homo sapiens, UniProt P10636); assay: Tau clearance in HEK293-hTau cells by Western blotting; format: cell-based
T1 construct: expressed in transfected cells
Description: SH-SY5Y human neuroblastoma cells were cultured in 90% DME/F-12 medium (HyClone, SH30023.01) with 10% fetal bovine serum (FBS) (Biological Industries, 04-001-1ACS) and penicillin (100 U/mL)/ streptomycin (100 μg/mL) in a 37 °C incubator with humidified atmosphere of 5% CO2. Human embryonic kidney 293 cells (HEK293) or HEK293 with stable expression of wild-type full-length human tau (termed as HEK293-hTau) were cultured in 90% DMEM/High Glucose medium (HyClone, SH30022.01) containing 10% FBS and 200 μg/mL G418 (ThermoFisher Scientific, 10131027), in a humidified atmosphere of 5% CO2 at 37 °C. Neofect (DNA transfection reagent, TF20121201) was used for plasmids transfection. The cells were placed onto 6-well or 12-well plates. Plasmids (EGFP-hTau or 3xFlag-hTau or the vector), neofect and Opti-MEM medium (Gibco, 31985-070) were made into a mixture in a ratio of 1 μg: 1 μL : 100 μL and then added into each well of the plate. To inhibit proteasome activity, HEK293-hTau cells were cultured with DMEM/High medium containing 20 μM C004019 with or without 10 μM MG132, or the same volume of vehicle (DMSO) for 24 h at 37 °C. To induce tau hyperphosphorylation, SH-SY5Y cells were cultured with DME/F-12 medium containing 10 μM C004019 with or without 1 μM GFX and 1 μM WO for 24 h at 37 °C.
(§1) The cells or hippocampal/cortex tissues were homogenized for ~ 30 min on ice in buffer [50 mM Tris·HCl pH 7.4-7.5, 100 mM NaCl, 1% (vol/vol) Triton X-100, 5 mM EDTA, 1:100 PMSF, 1:1,000 protease inhibitor cocktail containing 4-(2-Aminoethyl)-benzenesulfonyl fluoride hydrochloride, aprotinin, bestatin, leupeptin, E-64, and pepstatin A stored at 4 °C], and then centrifuged at 12,000 × g at 4 °C for 20 min. The supernatant was collected and the protein levels were analyzed using bicinchoninic acid (BCA, KF016, Sigma-Aldrich) by following the manufacturer's instruction (served as soluble protein). The pellet was further incubated with 8% (wt/vol) SDS buffer at 4 °C and then treated by ultrasonic wave to reach a complete resuspension. […] Immunoreactive bands were quantitatively analyzed by Image J2x software.

mRNA level of tau = assay: Tau mRNA level by q-PCR in HEK293-hTau cells; format: cell-based, human; details: 20 μM for 24 h
Description: Total RNA was isolated by using Trizol™ kit (Invitrogen, Carlsbad, CA, USA) and the reverse transcription reagent kit (RR037, Takara) was used to obtain cDNA. RT-PCR was performed using a StepOnePlus Real-Time PCR Detection System (AB Applied Biosystems, 272001262, Cossell Biotechnology). The PCR system contains 2 μL forward and reverse primers, 10 μL SYBR Green PCR master mixes, 1 μL cDNA and 7 μL diethylpyrocarbonate (DEPC H2O). The primer of MAPT-forward was CAGCTCCGGCACCAACAG and the MAPT-reverse was […]. The primer of β-actin-forward was […] and β-actin-reverse was […].

tau [1] = assay: Multiple-doses subcutaneous administration in hTau transgenic mice, brain tau; format: in vivo, mouse; details: 12 m-old hTau transgenic mice, subcutaneous 3 mg/kg once every 6 days, 5 times
Description: (§2) For brain surgery and stereotaxic cerebroventricular drug delivery, the mice were placed in a stereotaxic apparatus and anesthetized with 2% isoflurane (RWD Life Science, R510-22) through a nose cone (300-500 mL/min, RWD Life Science, China, R500). The scalp was incised along the midline between the ears after the mice were sterilized with iodophors and 75% (vol/vol) alcohol. The holes were drilled stereotaxically in the skull at a cerebroventricular location (posterior 0.22 mm, lateral 0.9 mm, and ventral 2.3 mm relative to bregma). Using a microinjection system (Shenzhen RWD Life Technology Co., Ltd; RWD 69100), C004019 (5 μL, 200 μM) was infused at a rate of 0.5 μL/min. The needle was kept in place for 10 min before withdrawal. After the skin was sutured, the mice were placed on a heater for analepsia. For subcutaneous injection, C004019 was diluted with 20% HP-β-CD and injected under the skin on the back neck to reach a final concentration of 3 mg/kg (low dose) or 15 mg/kg (high dose).
as §1, with “resuspension. The suspension was spun (18,000 × g, 4 °C for 20 min) and the supernatant collected (served as insoluble fraction). The supernatant of different faction was respectively mixed with loading buffer (3:1, vol/vol) containing 200 mM Tris-HCl, pH 6.8, 8% SDS, 40% glycerol, and boiled for 10 min.” for “resuspension.”, “software. […]” for “software.”

tau [2] = biological target: T2, tau (UniProt P10636+P40338, P618L); assay: Multiple-doses subcutaneous administration in 3xTg-AD mice, brain tau; format: in vivo, mouse; details: 9.5 m-old 3xTg-AD mice, subcutaneous 3 mg/kg every 6 days, 5 times
T2 construct: tissue stock number 34830; host or cells: hippocampus and cortex of 9.5 m-old 3xTg-AD mice
Description: as §2
as §1, with “resuspension. The suspension was spun (18,000 × g, 4 °C for 20 min) and the supernatant collected (served as insoluble fraction). The supernatant of different faction was respectively mixed with loading buffer (3:1, vol/vol) containing 200 mM Tris-HCl, pH 6.8, 8% SDS, 40% glycerol, and boiled for 10 min.” for “resuspension.”, “software. […]” for “software.”

amyloid-β plaque = assay: Congo red staining of amyloid-β plaque in 3xTg-AD mice; format: in vivo, mouse; details: 9.5 m-old 3xTg-AD mice; subcutaneous 3 mg/kg every 6 days, 5 times

T2 sequence (P10636 1-383 isoform P10636-6 P243L): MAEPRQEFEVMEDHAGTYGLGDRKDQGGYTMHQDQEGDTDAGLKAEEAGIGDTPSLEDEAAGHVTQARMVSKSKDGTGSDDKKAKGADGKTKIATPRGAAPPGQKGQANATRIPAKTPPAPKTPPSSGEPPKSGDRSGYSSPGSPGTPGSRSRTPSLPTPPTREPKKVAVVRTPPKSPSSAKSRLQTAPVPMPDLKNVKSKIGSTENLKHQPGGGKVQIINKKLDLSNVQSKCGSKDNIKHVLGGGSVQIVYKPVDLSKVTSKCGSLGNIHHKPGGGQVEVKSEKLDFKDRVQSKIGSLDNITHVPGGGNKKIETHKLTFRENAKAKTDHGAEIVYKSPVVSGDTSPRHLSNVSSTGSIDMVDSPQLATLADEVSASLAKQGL
T2 sequence (P40338 whole entry): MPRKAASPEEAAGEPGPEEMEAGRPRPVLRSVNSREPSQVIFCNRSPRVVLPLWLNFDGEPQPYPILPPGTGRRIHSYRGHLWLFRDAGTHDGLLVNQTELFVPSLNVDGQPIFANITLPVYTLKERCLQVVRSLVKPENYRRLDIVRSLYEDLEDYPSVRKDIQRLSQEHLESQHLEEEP
T2 sequence (P83940 whole entry partner): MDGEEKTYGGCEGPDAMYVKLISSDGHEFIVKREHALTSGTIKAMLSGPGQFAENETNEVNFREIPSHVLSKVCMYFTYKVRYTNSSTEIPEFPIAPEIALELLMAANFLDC
T2 sequence (P62869 whole entry partner): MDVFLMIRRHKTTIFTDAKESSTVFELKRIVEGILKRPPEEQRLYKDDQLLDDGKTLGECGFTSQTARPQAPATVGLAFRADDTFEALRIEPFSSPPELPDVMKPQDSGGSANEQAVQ
T1 sequence (P10636 1-441 isoform P10636-8): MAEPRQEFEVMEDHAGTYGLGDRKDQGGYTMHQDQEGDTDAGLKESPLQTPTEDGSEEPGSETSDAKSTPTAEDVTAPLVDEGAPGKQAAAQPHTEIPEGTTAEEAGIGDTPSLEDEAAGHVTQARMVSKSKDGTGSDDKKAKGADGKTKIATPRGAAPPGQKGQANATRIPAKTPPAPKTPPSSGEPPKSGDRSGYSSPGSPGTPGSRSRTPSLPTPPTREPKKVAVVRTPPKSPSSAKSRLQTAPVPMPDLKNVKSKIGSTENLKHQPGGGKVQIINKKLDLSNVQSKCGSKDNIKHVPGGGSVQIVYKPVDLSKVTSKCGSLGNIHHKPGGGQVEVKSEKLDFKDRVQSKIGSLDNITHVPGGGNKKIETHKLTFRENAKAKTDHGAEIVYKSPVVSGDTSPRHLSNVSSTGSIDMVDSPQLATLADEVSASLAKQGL

Question: Which “total tau (Tau5) and p-tau level” value (human tau (hTau); HEK293-hTau cells, Western blotting) does the source give for `CC(=O)N1CCCN(c2nc(NCCc3cccs3)nc(N(C)CC(=O)NCCOCCOCCOCC(=O)N[C@H](C(=O)N3C[C@H](O)C[C@H]3C(=O)NCc3ccc(-c4scnc4C)cc3)C(C)(C)C)n2)CC1` [C004019] here?
Answer: Its value is “concentration-dependent reduction”.

Question: And the DC50 (human tau (hTau); cultured cells, read-out: DC50 (tau degrader))?
Answer: The DC50 was about 5 nM.

Question: And the “mRNA level of tau” value (mRNA level of tau)?
Answer: Its value is “did not significantly change the mRNA level of tau”.

Question: What about the “p-tau and tau aggregation (HT7, AT8 immunohistochemistry, Thioflavin S staining)” value (tau [1]) of the same compound?
Answer: The value was “Reduction of p-tau and tau aggregation”.

Question: What about the “soluble and insoluble tau in cortex extracts” value (tau [1]; Western blotting) of the same compound?
Answer: The value was “could reduce both soluble and insoluble tau”.

Question: What about the “total and p-tau levels in hippocampal extracts” value (tau [1]; Western blotting) of the same compound?
Answer: The value was “significantly reduced total and p-tau levels”.

Question: And the “p-tau and aggregated tau (pS404, AT8 immunohistochemistry, Thioflavin S staining)” value (tau [2])?
Answer: The value was “Reduction of p-tau and aggregated tau proteins”.

Question: And the “oligomer tau (T22-positive) in the soluble fraction” value (tau [2]; Western blotting)?
Answer: Its value is “significantly reduced T22-positive tau”.

Question: And the “soluble and insoluble tau levels in hippocampal and cortex extracts” value (tau [2]; Western blotting)?
Answer: The value was “remarkably reduced both soluble and insoluble tau levels”.

Question: And the “amyloid-β plaque (Congo red staining)” value (amyloid-β plaque)?
Answer: The value was “No significant effects on amyloid-β plaque”.

Source: article PMC8039949, “A novel small-molecule PROTAC selectively promotes tau clearance to improve cognitive functions in Alzheimer-like models” (Theranostics, 2021)
